Legend:
PRMT5/MEP50 = PRMT5/MEP50 (Homo sapiens (Human), UniProt O14744); assay: PRMT5 Biochemical Assay (PRMT5/MEP50 enzyme assay on peptide substrate, 3H-SAM Flashplate)
Source text: S-adenosylmethionine (SAM), S-adenosylhomocysteine (SAH), bicine, KCl, Tween20, dimethylsulfoxide (DMSO), bovine skin gelatin (BSG), and Tris(2-carboxyethyl)phosphine hydrochloride solution (TCEP) were purchased from Sigma-Aldrich at the highest level of purity possible. ^3H-SAM was purchase from American Radiolabeled Chemicals with a specific activity of 80 Ci/mmol. 384-well streptavidin Flashplates were purchased from PerkinElmer.
Peptide representative of human histone H4 residues 1-15 was synthesized with a C-terminal linker-affinity tag motif and a C-terminal amide cap by 21st Century Biochemicals.
The amplified genes were sublconed into pENTR/D/TEV (Life Technologies) and subsequently transferred by Gateway™ attL×attR recombination to pDEST8 baculovirus expression vector (Life Technologies).
Protein over-expression was accomplished by infecting exponentially growing Spodoptera frugiperda (SF9) cell culture at 1.2×10^6 cell/ml with a 5000 fold dilution of BIIC stock. Infections were carried out at 27° C. for 72 hours, harvested by centrifugation, and stored at −80° C. for purification.
Flag-PRMT5/6His-MeP50 was eluted with 300 mM Imidazole in the same buffer.
General Procedure for PRMT5/MEP50 Enzyme Assays on Peptide Substrates.
The assays were all performed in a buffer consisting of 20 mM Bicine (pH=7.6), 1 mM TCEP, 0.005% BSG, and 0.002% Tween20, prepared on the day of use. […] DMSO (1 ul) was added to Columns 11, 12, 23, 24, rows A-H for the maximum signal control and 1 ul of SAH, a known product and inhibitor of PRMT5/MEP50, was added to columns 11, 12, 23, 24, rows I-P for the minimum signal control. A cocktail (40 ul) containing the PRMT5/MEP50 enzyme and the peptide was added by Multidrop Combi (Thermo-Fisher). The compounds were allowed to incubate with PRMT5/MEP50 for 30 min at 25 degrees Celsius, then a cocktail (10 ul) containing ^3H-SAM was added to initiate the reaction (final volume=51 ul). […] The assays were stopped by the addition of non-radioactive SAM (10 ul) to a final concentration of 600 uM, which dilutes the ^3H-SAM to a level where its incorporation into the peptide substrate is no longer detectable. 50 ul of the reaction in the 384-well polypropylene plate was then transferred to a 384-well Flashplate and the biotinylated peptides were allowed to bind to the streptavidin surface for at least 1 hour before being washed three times with 0.1% Tween20 in a Biotek ELx405 plate washer. The plates were then read in a PerkinElmer TopCount plate reader to measure the quantity of ^3H-labeled peptide bound to the Flashplate surface, measured as disintegrations per minute (dpm) or alternatively, referred to as counts per minute (cpm).
[formula] [formula] Where dpm=disintegrations per minute, cmpd=signal in assay well, and min and max are the respective minimum and maximum signal controls.
[formula] [formula] Where top and bottom are the normally allowed to float, but may be fixed at 100 or 0 respectively in a 3-parameter fit. The Hill Coefficient normally allowed to float but may also be fixed at 1 in a 3-parameter fit. Y is the % inhibition and X is the compound concentration.

[1] = test system: symmetric di-methyl arginine in Z-138 cells; assay: Z-138 Methylation Assay (In Cell Western for symmetric di-methyl arginine and DNA content); assay type: cell-based; conditions: Homo sapiens, read-out: ICW EC50
Outline: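 In-cell western: symmetric di-methyl arginine signal ratioed to DRAQ5 DNA content after 96 h compound exposure of Z-138 cells seeded at 50,000 cells/mL.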

Z-138 cell line = assay: Z-138 Proliferation Assay (Cell Titer Glo, 5 days); assay type: cell-based; conditions: Homo sapiens, 120 h; Z-138 cells, 5 days; read-out: Proliferation EC50
Outline: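 Viability via CellTiter-Glo luminescence (ATP) after 5-day incubation at 37 °C, 5% CO2. Compounds tested in triplicate, nine 3-fold steps, highest final concentration 20 μM in 0.2% DMSO; 50% inhibitory concentration by 4-parameter fit of normalized curves.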

Chain of PRMT5/MEP50 (O14744 other isoform, or with tags, fused parts or gaps): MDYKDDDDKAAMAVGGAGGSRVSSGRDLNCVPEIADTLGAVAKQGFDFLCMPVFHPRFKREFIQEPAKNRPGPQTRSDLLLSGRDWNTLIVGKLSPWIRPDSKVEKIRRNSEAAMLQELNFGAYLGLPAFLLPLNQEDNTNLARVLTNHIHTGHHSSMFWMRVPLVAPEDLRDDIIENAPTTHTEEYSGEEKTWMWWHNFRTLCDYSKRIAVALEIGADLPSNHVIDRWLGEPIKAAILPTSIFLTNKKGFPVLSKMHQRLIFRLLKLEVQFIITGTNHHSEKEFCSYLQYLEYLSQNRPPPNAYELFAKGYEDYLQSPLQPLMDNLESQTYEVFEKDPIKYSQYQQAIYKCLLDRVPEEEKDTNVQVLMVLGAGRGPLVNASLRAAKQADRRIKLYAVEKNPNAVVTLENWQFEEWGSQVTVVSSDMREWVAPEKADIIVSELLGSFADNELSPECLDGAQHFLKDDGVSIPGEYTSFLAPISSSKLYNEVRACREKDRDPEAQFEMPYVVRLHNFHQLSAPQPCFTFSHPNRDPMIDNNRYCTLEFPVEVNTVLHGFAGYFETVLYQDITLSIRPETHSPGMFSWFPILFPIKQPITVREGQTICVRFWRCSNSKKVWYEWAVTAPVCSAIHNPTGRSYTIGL
Chain of PRMT5/MEP50 (Q9BQA1 other isoform, or with tags, fused parts or gaps partner): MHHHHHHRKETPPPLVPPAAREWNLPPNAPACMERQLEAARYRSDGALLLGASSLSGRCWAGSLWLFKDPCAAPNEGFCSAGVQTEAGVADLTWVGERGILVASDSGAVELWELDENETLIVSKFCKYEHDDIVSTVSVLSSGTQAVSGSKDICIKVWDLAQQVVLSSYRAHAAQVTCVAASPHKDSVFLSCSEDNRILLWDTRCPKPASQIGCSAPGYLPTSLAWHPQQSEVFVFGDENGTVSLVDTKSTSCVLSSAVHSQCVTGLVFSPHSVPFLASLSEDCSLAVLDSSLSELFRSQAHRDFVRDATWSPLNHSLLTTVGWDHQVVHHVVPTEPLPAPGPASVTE

| SMILES | IC50 (PRMT5/MEP50) | EC50 [1] | EC50 (Z-138 cell line) |
| --- | --- | --- | --- |
| O=C(NC[C@H](O)CN1CCc2ccccc2C1)c1ccc(OCCCN2CCC2)cc1 [Compound 373] | < 0.1 µM | < 0.1 µM | 1 to 10 µM |
| CC(C)NCCCOc1ccc(C(=O)NC[C@H](O)CN2CCc3ccccc3C2)cc1 [Compound 374] | < 0.1 µM | < 0.1 µM | 1 to 10 µM |
| O=C(NC[C@H](O)CN1CCc2ccccc2C1)c1cc(NC2CCC2)nc(N2CCCCC2)c1 [Compound 375] | < 0.1 µM | < 0.1 µM | 0.101 to 1 µM |
| CN(C)[C@H]1C[C@H](Nc2cc(C(=O)NC[C@H](O)CN3CCc4ccccc4C3)ncn2)C1 [Compound 376] | < 0.1 µM | < 0.1 µM | 1 to 10 µM |
| CN(C)[C@H]1C[C@@H](Nc2cc(C(=O)NC[C@H](O)CN3CCc4ccccc4C3)ncn2)C1 [Compound 377] | < 0.1 µM | 0.101 to 1 µM | 1 to 10 µM |
| O=C(NC[C@H](O)CN1CCc2ccccc2C1)c1ccnc(NC2COC2)c1 [Compound 378] | < 0.1 µM | > 1 µM | > 20 µM |
| Cc1cnc(NC2CN(S(C)(=O)=O)C2)cc1C(=O)NC[C@H](O)CN1CCc2ccccc2C1 [Compound 379] | < 0.1 µM | < 0.1 µM | 1 to 10 µM |
| CC(=O)N1CC(Nc2cc(C(=O)NC[C@H](O)CN3CCc4ccccc4C3)c(C)cn2)C1 [Compound 380] | < 0.1 µM | < 0.1 µM | 0.101 to 1 µM |
| O=C(NC[C@H](O)CN1CCc2ccccc2C1)c1ccnc(Nc2cc[nH]n2)c1 [Compound 381] | < 0.1 µM | < 0.1 µM | 1 to 10 µM |
| O=C(NC[C@H](O)CN1CCc2ccccc2C1)c1ccnc(Nc2ccccn2)c1 [Compound 382] | < 0.1 µM | < 0.1 µM | 0.101 to 1 µM |
| O=C(NC[C@H](O)CN1CCc2ccccc2C1)c1ccc(OCCN2CCCC2)cc1 [Compound 383] | < 0.1 µM | < 0.1 µM | 1 to 10 µM |
| CN(C)CCOc1ccc(C(=O)NC[C@H](O)CN2CCc3ccccc3C2)cc1 [Compound 384] | < 0.1 µM | < 0.1 µM | 1 to 10 µM |
| CCN(C)CCOc1ccc(C(=O)NC[C@H](O)CN2CCc3ccccc3C2)cc1 [Compound 385] | < 0.1 µM | < 0.1 µM | 1 to 10 µM |
| CNCCOc1ccc(C(=O)NC[C@H](O)CN2CCc3ccccc3C2)cc1 [Compound 386] | < 0.1 µM | < 0.1 µM | 1 to 10 µM |
| O=C(NC[C@H](O)CN1CCc2ccccc2C1)c1ccc(OCCN2CCOCC2)cc1 [Compound 387] | < 0.1 µM | < 0.1 µM | 0.101 to 1 µM |
| O=C(NC[C@H](O)CN1CCc2ccccc2C1)c1ccc(OCCN2CCC2)cc1 [Compound 388] | < 0.1 µM | < 0.1 µM | 1 to 10 µM |
| CC(C)N(C)CCOc1ccc(C(=O)NC[C@H](O)CN2CCc3ccccc3C2)cc1 [Compound 389] | < 0.1 µM | < 0.1 µM | 1 to 10 µM |
| CC(C)NCCOc1ccc(C(=O)NC[C@H](O)CN2CCc3ccccc3C2)cc1 [Compound 390] | < 0.1 µM | < 0.1 µM | 1 to 10 µM |
| CCNCCOc1ccc(C(=O)NC[C@H](O)CN2CCc3ccccc3C2)cc1 [Compound 391] | < 0.1 µM | < 0.1 µM | 1 to 10 µM |
| CNCCCOc1ccc(C(=O)NC[C@H](O)CN2CCc3ccccc3C2)cc1 [Compound 392] | < 0.1 µM | < 0.1 µM | 1 to 10 µM |
| O=C(NC[C@H](O)CN1CCc2ccccc2C1)c1cc(NC2CCC2)nc(N2CCNCC2)c1 [Compound 393] | < 0.1 µM | < 0.1 µM | < 0.1 µM |
